Assay results reported in paper PMC9067983, “Identification of highly selective type II kinase inhibitors with chiral peptidomimetic tails” (Journal of Enzyme Inhibition and Medicinal Chemistry, 2022).
Where a SMILES comes first, the peptide text is derived from it. [ ]: non-standard residue; d: D form. The star is where a group is joined. X1 = Cc1ccc(Nc2ncc3c(n2)N(C)C(=O)N(c2cc(C(=O)*)ccc2C)C3)cn1; Aib = CC(C)(N)C(=O)O

Experiments:
Assay in all cases: kinase selectivity profiling
Format in all cases: biochemical
Conditions in all cases: 10µM ATP, read-out: % inhibition (relative to DMSO)
[1] = biological target: T1, Aurora C (Homo sapiens, UniProt Q9UQB9)
T1 construct: purchased Reaction Biology Corp
Procedure: (§1) Full panel kinase profiling and kinase IC50 measurement were performed by using Reaction Biology Corp. (San Diego, USA).

[2] = biological target: T2, CDC7/DBF4 (Homo sapiens, UniProt O00311)
T2 construct: purchased Reaction Biology Corp
Procedure: as §1

[3] = biological target: T3, CDK1/cyclin B (Homo sapiens, UniProt P06493)
T3 construct: purchased Reaction Biology Corp
T3 sequence (P06493 whole entry): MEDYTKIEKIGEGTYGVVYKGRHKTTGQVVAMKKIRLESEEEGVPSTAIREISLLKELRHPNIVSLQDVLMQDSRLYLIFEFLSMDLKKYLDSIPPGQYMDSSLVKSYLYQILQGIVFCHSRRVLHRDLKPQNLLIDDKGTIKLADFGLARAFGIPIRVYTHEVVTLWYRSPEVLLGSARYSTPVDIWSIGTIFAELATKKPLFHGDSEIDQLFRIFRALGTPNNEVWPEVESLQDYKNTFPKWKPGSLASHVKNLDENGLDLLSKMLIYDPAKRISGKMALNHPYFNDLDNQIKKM
T3 sequence (P14635 whole entry partner): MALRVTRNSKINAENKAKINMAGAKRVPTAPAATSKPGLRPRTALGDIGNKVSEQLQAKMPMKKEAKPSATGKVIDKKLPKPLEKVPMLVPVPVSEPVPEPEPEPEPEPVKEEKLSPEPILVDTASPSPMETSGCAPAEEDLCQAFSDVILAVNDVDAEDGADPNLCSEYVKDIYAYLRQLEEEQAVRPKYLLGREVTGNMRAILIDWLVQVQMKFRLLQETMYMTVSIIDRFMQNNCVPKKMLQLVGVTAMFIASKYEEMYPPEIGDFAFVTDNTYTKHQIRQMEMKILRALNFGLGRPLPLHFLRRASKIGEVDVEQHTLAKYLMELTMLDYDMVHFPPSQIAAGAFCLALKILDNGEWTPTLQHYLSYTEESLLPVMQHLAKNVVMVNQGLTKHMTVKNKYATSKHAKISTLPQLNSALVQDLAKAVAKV
Procedure: as §1

[4] = biological target: T4, CDK5/p35 (Homo sapiens, UniProt Q00535)
T4 construct: purchased Reaction Biology Corp
Procedure: as §1

[5] = biological target: T5, CDK6/cyclin D1 (Homo sapiens, UniProt Q00534)
T5 construct: purchased Reaction Biology Corp
Procedure: as §1

[6] = biological target: T6, CK1g3 (Homo sapiens, UniProt Q9Y6M4)
T6 construct: purchased Reaction Biology Corp
Procedure: as §1

[7] = biological target: T7, COT1/MAP3K8 (Homo sapiens, UniProt P41279)
T7 construct: purchased Reaction Biology Corp
Procedure: as §1

[8] = biological target: T8, CSK (Homo sapiens, UniProt P41240)
T8 construct: purchased Reaction Biology Corp
Procedure: as §1

[9] = biological target: T9, EPHA3 (Homo sapiens, UniProt P29320)
T9 construct: purchased Reaction Biology Corp
Procedure: as §1

[10] = biological target: T10, EPHA7 (Homo sapiens, UniProt Q15375)
T10 construct: purchased Reaction Biology Corp
Procedure: as §1

[11] = biological target: T11, EPHA8 (Homo sapiens, UniProt P29322)
T11 construct: purchased Reaction Biology Corp
Procedure: as §1

[12] = biological target: T12, ERBB4/HER4 (Homo sapiens, UniProt Q15303)
T12 construct: purchased Reaction Biology Corp
Procedure: as §1

[13] = biological target: T13, FER (Homo sapiens, UniProt P16591)
T13 construct: purchased Reaction Biology Corp
Procedure: as §1

[14] = biological target: T14, GLK/MAP4K3 (Homo sapiens, UniProt Q8IVH8)
T14 construct: purchased Reaction Biology Corp
Procedure: as §1

[15] = biological target: T15, HGK/MAP4K4 (Homo sapiens, UniProt O95819)
T15 construct: purchased Reaction Biology Corp
Procedure: as §1

[16] = biological target: T16, IKKa/CHUK (Homo sapiens, UniProt O15111)
T16 construct: purchased Reaction Biology Corp
Procedure: as §1

[17] = biological target: T17, JAK3 (Homo sapiens, UniProt P52333)
T17 construct: purchased Reaction Biology Corp
Procedure: as §1

[18] = biological target: T18, KSR2 (Homo sapiens, UniProt Q6VAB6)
T18 construct: purchased Reaction Biology Corp
Procedure: as §1

[19] = biological target: T19, LATS2 (Homo sapiens, UniProt Q9NRM7)
T19 construct: purchased Reaction Biology Corp
Procedure: as §1

[20] = biological target: T20, Lck (Homo sapiens, UniProt P06239)
T20 construct: purchased Reaction Biology Corp
Procedure: as §1

[21] = biological target: T21, MARK2/PAR-1Ba (Homo sapiens, UniProt Q7KZI7)
T21 construct: purchased Reaction Biology Corp
Procedure: as §1

[22] = biological target: T22, MEKK6 (Homo sapiens, UniProt O95382)
T22 construct: purchased Reaction Biology Corp
Procedure: as §1

[23] = biological target: T23, MELK (Homo sapiens, UniProt Q14680)
T23 construct: purchased Reaction Biology Corp
Procedure: as §1

[24] = biological target: T24, MLK3/MAP3K11 (Homo sapiens, UniProt Q16584)
T24 construct: purchased Reaction Biology Corp
Procedure: as §1

[25] = biological target: T25, MNK2 (Homo sapiens, UniProt Q9HBH9)
T25 construct: purchased Reaction Biology Corp
Procedure: as §1

[26] = biological target: T26, MYLK3 (Homo sapiens, UniProt Q32MK0)
T26 construct: purchased Reaction Biology Corp
Procedure: as §1

[27] = biological target: T27, NEK4 (Homo sapiens, UniProt P51957)
T27 construct: purchased Reaction Biology Corp
T27 sequence (P51957 whole entry): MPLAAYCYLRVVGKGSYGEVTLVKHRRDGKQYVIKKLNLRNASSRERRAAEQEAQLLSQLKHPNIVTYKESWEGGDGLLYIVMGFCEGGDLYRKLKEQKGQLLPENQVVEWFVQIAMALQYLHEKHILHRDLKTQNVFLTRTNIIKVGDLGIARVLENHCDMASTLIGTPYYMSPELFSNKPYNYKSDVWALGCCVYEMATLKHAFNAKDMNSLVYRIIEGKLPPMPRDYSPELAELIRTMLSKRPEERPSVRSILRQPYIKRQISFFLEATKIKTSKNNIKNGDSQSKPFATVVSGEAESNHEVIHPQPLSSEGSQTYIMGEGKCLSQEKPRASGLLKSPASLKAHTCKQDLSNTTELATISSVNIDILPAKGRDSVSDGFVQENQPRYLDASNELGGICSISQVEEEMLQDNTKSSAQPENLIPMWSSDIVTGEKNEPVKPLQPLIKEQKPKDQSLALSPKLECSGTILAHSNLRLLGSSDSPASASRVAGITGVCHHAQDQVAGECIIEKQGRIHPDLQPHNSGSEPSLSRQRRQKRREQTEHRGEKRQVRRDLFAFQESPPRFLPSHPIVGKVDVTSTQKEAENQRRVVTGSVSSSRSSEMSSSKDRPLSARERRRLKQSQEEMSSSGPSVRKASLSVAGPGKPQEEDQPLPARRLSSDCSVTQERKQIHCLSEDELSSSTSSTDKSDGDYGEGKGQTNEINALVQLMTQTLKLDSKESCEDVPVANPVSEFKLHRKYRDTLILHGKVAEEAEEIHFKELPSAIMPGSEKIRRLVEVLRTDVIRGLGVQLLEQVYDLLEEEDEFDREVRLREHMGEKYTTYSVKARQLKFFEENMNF
Procedure: as §1

[28] = biological target: T28, PDGFRb (Homo sapiens, UniProt P09619)
T28 construct: purchased Reaction Biology Corp
T28 sequence (P09619 33-1106): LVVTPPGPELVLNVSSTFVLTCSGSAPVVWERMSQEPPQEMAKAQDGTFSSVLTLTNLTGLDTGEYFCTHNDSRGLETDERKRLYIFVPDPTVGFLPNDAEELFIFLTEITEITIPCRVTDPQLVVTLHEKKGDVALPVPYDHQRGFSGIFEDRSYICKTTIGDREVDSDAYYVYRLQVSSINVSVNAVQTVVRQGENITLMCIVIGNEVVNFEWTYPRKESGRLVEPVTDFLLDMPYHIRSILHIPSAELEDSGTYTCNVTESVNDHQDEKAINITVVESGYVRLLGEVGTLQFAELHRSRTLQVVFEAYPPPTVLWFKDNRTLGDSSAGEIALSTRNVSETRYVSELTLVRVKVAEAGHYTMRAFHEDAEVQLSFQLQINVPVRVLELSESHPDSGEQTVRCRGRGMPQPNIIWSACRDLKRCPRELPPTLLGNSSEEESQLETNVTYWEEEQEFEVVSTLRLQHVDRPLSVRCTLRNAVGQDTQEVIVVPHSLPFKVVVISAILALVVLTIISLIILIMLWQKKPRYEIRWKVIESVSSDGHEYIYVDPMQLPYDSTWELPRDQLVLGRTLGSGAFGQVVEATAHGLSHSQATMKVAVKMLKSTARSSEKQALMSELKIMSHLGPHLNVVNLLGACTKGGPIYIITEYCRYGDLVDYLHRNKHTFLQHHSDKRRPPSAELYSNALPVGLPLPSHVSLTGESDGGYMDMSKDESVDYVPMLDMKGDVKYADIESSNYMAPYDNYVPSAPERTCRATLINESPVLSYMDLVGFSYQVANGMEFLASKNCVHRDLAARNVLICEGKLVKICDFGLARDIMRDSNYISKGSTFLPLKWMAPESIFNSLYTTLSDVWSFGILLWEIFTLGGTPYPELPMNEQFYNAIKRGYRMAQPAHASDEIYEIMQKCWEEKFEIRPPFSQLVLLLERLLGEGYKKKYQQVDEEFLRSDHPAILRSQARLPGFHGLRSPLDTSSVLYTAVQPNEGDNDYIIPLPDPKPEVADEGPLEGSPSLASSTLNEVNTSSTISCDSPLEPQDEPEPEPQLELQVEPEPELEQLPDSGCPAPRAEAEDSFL
Procedure: as §1

[29] = biological target: T29, PKAcb (Homo sapiens, UniProt P22694)
T29 construct: purchased Reaction Biology Corp
Procedure: as §1

[30] = biological target: T30, PKCiota (Homo sapiens, UniProt P41743)
T30 construct: purchased Reaction Biology Corp
Procedure: as §1

[31] = biological target: T31, PKCnu/PRKD3 (Homo sapiens, UniProt O94806)
T31 construct: purchased Reaction Biology Corp
T31 sequence (O94806 whole entry): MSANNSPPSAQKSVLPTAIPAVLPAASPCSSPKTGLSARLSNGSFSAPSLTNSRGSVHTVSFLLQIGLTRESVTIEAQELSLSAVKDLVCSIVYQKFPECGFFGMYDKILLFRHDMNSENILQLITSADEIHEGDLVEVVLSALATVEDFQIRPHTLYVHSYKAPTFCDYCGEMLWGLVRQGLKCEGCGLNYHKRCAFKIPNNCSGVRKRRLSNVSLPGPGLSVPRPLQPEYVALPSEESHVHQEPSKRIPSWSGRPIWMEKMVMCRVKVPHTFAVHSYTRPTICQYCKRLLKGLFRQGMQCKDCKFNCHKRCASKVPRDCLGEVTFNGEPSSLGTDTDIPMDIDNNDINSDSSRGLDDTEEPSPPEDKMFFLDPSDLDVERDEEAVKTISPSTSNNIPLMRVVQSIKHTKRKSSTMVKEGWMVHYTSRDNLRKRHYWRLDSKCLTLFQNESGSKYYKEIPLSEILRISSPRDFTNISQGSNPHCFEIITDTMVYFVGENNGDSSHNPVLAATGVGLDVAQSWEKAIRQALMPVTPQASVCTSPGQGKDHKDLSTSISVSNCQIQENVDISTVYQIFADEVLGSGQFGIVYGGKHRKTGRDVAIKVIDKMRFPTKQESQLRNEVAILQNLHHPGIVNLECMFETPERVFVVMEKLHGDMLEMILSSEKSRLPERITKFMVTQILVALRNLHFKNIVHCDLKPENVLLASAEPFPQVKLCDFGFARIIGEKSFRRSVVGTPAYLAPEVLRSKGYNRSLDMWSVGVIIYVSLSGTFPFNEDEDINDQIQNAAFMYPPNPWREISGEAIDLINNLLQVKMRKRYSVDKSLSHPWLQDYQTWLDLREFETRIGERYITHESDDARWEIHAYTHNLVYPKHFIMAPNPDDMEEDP
Procedure: as §1

[32] = biological target: T32, RIPK5 (Homo sapiens, UniProt Q6XUX3)
T32 construct: purchased Reaction Biology Corp
Procedure: as §1

[33] = biological target: T33, RSK2 (Homo sapiens, UniProt P51812)
T33 construct: purchased Reaction Biology Corp
T33 sequence (P51812 whole entry): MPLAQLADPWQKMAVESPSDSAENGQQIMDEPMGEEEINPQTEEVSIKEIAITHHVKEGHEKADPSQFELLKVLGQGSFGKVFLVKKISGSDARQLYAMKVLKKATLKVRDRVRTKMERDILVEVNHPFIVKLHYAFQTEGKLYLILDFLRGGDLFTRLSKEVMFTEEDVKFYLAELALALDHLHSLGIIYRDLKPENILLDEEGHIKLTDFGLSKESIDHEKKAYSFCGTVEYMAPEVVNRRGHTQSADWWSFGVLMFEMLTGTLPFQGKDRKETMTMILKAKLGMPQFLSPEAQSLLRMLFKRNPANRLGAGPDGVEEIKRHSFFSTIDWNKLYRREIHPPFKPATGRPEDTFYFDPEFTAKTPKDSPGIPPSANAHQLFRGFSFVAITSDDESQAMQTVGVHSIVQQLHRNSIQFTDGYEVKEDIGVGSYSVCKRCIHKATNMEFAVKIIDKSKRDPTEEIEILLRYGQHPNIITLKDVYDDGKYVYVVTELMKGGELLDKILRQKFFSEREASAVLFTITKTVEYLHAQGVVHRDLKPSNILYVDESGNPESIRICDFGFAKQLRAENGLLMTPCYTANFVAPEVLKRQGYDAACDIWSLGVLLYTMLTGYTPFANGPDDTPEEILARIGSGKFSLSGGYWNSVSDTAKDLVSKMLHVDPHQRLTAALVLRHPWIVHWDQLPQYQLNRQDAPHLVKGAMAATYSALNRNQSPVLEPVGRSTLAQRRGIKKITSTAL
Procedure: as §1

[34] = biological target: T34, SGK3/SGKL (Homo sapiens, UniProt Q96BR1)
T34 construct: purchased Reaction Biology Corp
T34 sequence (Q96BR1 whole entry): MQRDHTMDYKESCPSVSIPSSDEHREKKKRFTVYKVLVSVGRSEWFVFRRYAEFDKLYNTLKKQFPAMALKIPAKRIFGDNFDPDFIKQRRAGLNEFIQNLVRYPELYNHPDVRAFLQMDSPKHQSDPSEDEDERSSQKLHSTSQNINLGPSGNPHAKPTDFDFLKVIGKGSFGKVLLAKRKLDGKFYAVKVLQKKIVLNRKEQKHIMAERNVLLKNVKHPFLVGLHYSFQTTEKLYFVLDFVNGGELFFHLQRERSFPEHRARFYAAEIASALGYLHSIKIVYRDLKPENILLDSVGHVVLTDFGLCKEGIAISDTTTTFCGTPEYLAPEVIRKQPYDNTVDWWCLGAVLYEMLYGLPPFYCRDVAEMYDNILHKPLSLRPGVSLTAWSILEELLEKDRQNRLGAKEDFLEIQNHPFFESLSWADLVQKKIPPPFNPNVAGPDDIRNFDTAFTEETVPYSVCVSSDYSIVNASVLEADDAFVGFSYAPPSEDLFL
Procedure: as §1

[35] = biological target: T35, STK32B/YANK2 (Homo sapiens, UniProt Q9NY57)
T35 construct: purchased Reaction Biology Corp
Procedure: as §1

[36] = biological target: T36, STK39/STLK3 (Homo sapiens, UniProt Q9UEW8)
T36 construct: purchased Reaction Biology Corp
Procedure: as §1

[37] = biological target: T37, TAOK3/JIK (Homo sapiens, UniProt Q9H2K8)
T37 construct: purchased Reaction Biology Corp
Procedure: as §1

[38] = biological target: T38, TESK2 (Homo sapiens, UniProt Q96S53)
T38 construct: purchased Reaction Biology Corp
Procedure: as §1

[39] = biological target: T39, TRKC (Homo sapiens, UniProt Q16288)
T39 construct: purchased Reaction Biology Corp
Procedure: as §1

[40] = biological target: T40, TSSK3/STK22C (Homo sapiens, UniProt Q96PN8)
T40 construct: purchased Reaction Biology Corp
T40 sequence (Q96PN8 whole entry): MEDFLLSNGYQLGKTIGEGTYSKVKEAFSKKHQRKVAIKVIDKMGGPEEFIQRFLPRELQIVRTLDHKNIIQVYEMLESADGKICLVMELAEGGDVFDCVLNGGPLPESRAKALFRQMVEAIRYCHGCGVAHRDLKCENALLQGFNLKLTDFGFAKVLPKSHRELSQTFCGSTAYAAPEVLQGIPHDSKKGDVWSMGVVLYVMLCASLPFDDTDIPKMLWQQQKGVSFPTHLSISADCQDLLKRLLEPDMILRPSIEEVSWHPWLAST
Procedure: as §1

[41] = biological target: T41, VRK2 (Homo sapiens, UniProt Q86Y07)
T41 construct: purchased Reaction Biology Corp
Procedure: as §1

[42] = biological target: T42, p38a/MAPK14 (Homo sapiens, UniProt Q16539)
T42 construct: purchased Reaction Biology Corp
Procedure: as §1

In the case of `Cc1ccc(Nc2ncc3c(n2)N(C)C(=O)N(c2cc(C(=O)N[C@H](C(=O)N4CCC[C@H]4C(=O)NC(C)(C)C(=O)N[C@@H](CC(C)C)C(=O)N(C)C)C(C)C)ccc2C)C3)cn1` [7a, (S)-N-(1-(((S)-1-(dimethylamino)-4-methyl-1-oxopentan-2-yl)amino)-2-methyl-1-oxopropan-2-yl)-1-((4-methyl-3-(1-methyl-7-((6-methylpyridin-3-yl)amino)-2-oxo-1,4-dihydropyrimido[4,5-d]pyrimidin-3(2H)-yl)benzoyl)-L-valyl)pyrrolidine-2-carboxamide] (X1-VP[Aib]L-NMe2), the inhibition at 1 µM [1] is reported as 0%, the inhibition at 1 µM [2] is reported as 0% and the inhibition at 1 µM [3] is reported as 7%. For the same compound, the inhibition at 1 µM [4] was 6%, the inhibition at 1 µM [5] was 0% and the inhibition at 1 µM [6] was 0%. For the same compound, the inhibition at 1 µM [7] was 1%, the inhibition at 1 µM [8] was 44% and the inhibition at 1 µM [9] was 25%. For the same compound, the inhibition at 1 µM [10] was 2%, the inhibition at 1 µM [11] was 0% and the inhibition at 1 µM [12] was 53%. The inhibition at 1 µM [13] was 0%, the inhibition at 1 µM [14] was 9% and the inhibition at 1 µM [15] was 0%. The inhibition at 1 µM [16] was 6%, the inhibition at 1 µM [17] was 0% and the inhibition at 1 µM [18] was 5%. It also gave an inhibition at 1 µM [19] of 1%, an inhibition at 1 µM [20] of 94% and an inhibition at 1 µM [21] of 0%. For the same compound, the inhibition at 1 µM [22] was 0%, the inhibition at 1 µM [23] was 4% and the inhibition at 1 µM [24] was 34%. For the same compound, the inhibition at 1 µM [25] was 1%, the inhibition at 1 µM [26] was 0% and the inhibition at 1 µM [27] was 0%. For the same compound, the inhibition at 1 µM [28] was 48%, the inhibition at 1 µM [29] was 3% and the inhibition at 1 µM [30] was 3%. It also gave an inhibition at 1 µM [31] of 0%, an inhibition at 1 µM [32] of 0% and an inhibition at 1 µM [33] of 0%. The inhibition at 1 µM [34] was 6%, the inhibition at 1 µM [35] was 16% and the inhibition at 1 µM [36] was 0%. The inhibition at 1 µM [37] was 0%, the inhibition at 1 µM [38] was 4% and the inhibition at 1 µM [39] was 21%. For the same compound, the inhibition at 1 µM [40] was 3%, the inhibition at 1 µM [41] was 0% and the inhibition at 1 µM [42] was 15%.
